This is an account of results in ChEMBL document CHEMBL1201862, “PubChem BioAssay data set” (2004).

Test systems include SK-MEL-2; Hs-578T; UACC-62; PC-3; HT-29; OVCAR-5; TK-10; Malme-3M; MDA-MB-435; MCF7; OVCAR-4; CAKI-1; SF-295; HOP-92; OVCAR-8; CCRF-CEM; IGROV-1; SF-539; RPMI-8226; HCC 2998.
Holding throughout (test): growth of human tumour cells (NCI), 48 h

Molecules are shown by their SMILES.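 Where inhibition never reached the appropriate level, the endpoint shown equals the highest concentration tested. Otherwise, values were interpolated linearly from a five-concentration, 48-hour dose response in 96-well plates. Here, GI50 denotes the concentration required for 50% inhibition of growth.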 Active and inactive are the calls of the source. Cut-off read from the data, not from the text of the source: active = GI50 up to about 1.1 µM and inactive = higher.

As to `O1C2C1C1OC1C1OC1C1OC21` (configuration not stated), the GI50 in the assay on SK-MEL-2, in the assay with Hs-578T, with UACC-62, in the assay on PC-3, with HT-29 and in the assay on OVCAR-5 was > 100 µM (inactive) in each case. Further, the GI50 with TK-10, in the assay on Malme-3M, in the assay on MDA-MB-435, in the assay on MCF7, in the assay with OVCAR-4 and in the assay on CAKI-1 was > 100 µM (inactive) each time. Also, the GI50 in the assay with SF-295 is > 100 µM (inactive); in the assay on HOP-92, > 100 µM (inactive); with OVCAR-8 it was > 100 µM (inactive); in the assay with CCRF-CEM it was < 0.01 µM (active).

On to `COc1ccc(S(=O)(=O)NC(CCC(=O)NN)C(=O)NN)cc1` (configuration not stated), for which the GI50 with SK-MEL-2, in the assay with Hs-578T, with UACC-62, in the assay on PC-3, in the assay on HT-29 and in the assay with IGROV-1 was > 100 µM (inactive) in each case. Moreover, the GI50 in the assay with OVCAR-5, in the assay with SF-539, with TK-10, in the assay on Malme-3M, in the assay on MDA-MB-435 and with RPMI-8226 was > 100 µM (inactive) in each case. In addition, the GI50 with MCF7, in the assay with OVCAR-4, in the assay with CAKI-1, in the assay on SF-295, in the assay on HOP-92 and in the assay with OVCAR-8 was > 100 µM (inactive) in each case. Moreover, the GI50 in the assay with CCRF-CEM is > 100 µM (inactive).

`COc1cc2c(cc1OCCN1CCN(CCOc3cc4c(cc3OC)C(=O)N3CCC[C@H]3C=N4)CC1)N=C[C@@H]1CCCN1C2=O`: the GI50 in the assay with SK-MEL-2 is 26 µM (inactive); in the assay with Hs-578T, 41.6 µM (inactive); in the assay with UACC-62 it was 14.3 µM (inactive); in the assay with PC-3, 25.9 µM (inactive); in the assay on HT-29, 36 µM (inactive); in the assay with IGROV-1 it was 33.5 µM (inactive). For the same compound, the GI50 was 26.2 µM (inactive) with OVCAR-5; 10.2 µM (inactive) in the assay with SF-539; 23.8 µM (inactive) in the assay on TK-10; 9.14 µM (inactive) with Malme-3M; 20.8 µM (inactive) in the assay with MDA-MB-435; 1.56 µM (inactive) with RPMI-8226. Besides, the GI50 with MCF7 is 18.2 µM (inactive); with OVCAR-4, > 100 µM (inactive); in the assay with CAKI-1, 14 µM (inactive); in the assay with SF-295, 8.83 µM (inactive); with HOP-92, 0.906 µM (active); with OVCAR-8, 35.3 µM (inactive).

Turning to `O=c1[nH]nc(Cc2ccccc2)n1Nc1ccccc1`, the GI50 with SK-MEL-2 was 48.4 µM (inactive); in the assay on Hs-578T, > 100 µM (inactive); in the assay with UACC-62, > 100 µM (inactive); in the assay on PC-3 it was > 100 µM (inactive); in the assay on HT-29, > 100 µM (inactive); with IGROV-1 it was > 100 µM (inactive). Further, the GI50 in the assay with OVCAR-5, with SF-539, with TK-10, with Malme-3M, in the assay on MDA-MB-435 and in the assay on RPMI-8226 was > 100 µM (inactive) in each case. The GI50 with MCF7 is > 100 µM (inactive); with OVCAR-4, > 100 µM (inactive); with CAKI-1, 46.3 µM (inactive); in the assay on SF-295, > 100 µM (inactive); with OVCAR-8, > 100 µM (inactive); with CCRF-CEM it was > 100 µM (inactive). Further, the GI50 in the assay with HCC 2998 was > 100 µM (inactive).

With `CN(CC(=O)O)Cc1c(O)c(Cl)cc(Cl)c1Cl`, the GI50 with SK-MEL-2 was 27.2 µM (inactive); in the assay on Hs-578T, > 100 µM (inactive); in the assay on UACC-62, 23.1 µM (inactive); with PC-3, 41.4 µM (inactive); with HT-29 it was 33.2 µM (inactive); in the assay on IGROV-1 it was 48.1 µM (inactive). Further, the GI50 with OVCAR-5 is 26.5 µM (inactive); in the assay with SF-539 it was 22.4 µM (inactive); with TK-10 it was 37.8 µM (inactive); in the assay with Malme-3M, 27.4 µM (inactive); in the assay on MDA-MB-435, 74.8 µM (inactive); in the assay with RPMI-8226, 37.4 µM (inactive). Also, the GI50 in the assay on MCF7 is 17.9 µM (inactive); in the assay on OVCAR-4, 33.6 µM (inactive); in the assay with CAKI-1, 61.8 µM (inactive); with SF-295 it was 64.9 µM (inactive); in the assay on HOP-92 it was 23.4 µM (inactive); in the assay on OVCAR-8, 29.2 µM (inactive). Further, the GI50 in the assay on CCRF-CEM was 5.13 µM (inactive).

Take `O=C(/C=C/c1ccccc1)c1cc(Br)ccc1O`: the GI50 was 21.4 µM (inactive) with SK-MEL-2; 21.2 µM (inactive) in the assay on Hs-578T; 13.9 µM (inactive) with UACC-62; 17.1 µM (inactive) with PC-3; 16.6 µM (inactive) in the assay with HT-29; 11.5 µM (inactive) with IGROV-1. The GI50 was 22.3 µM (inactive) with OVCAR-5; 17.6 µM (inactive) in the assay on TK-10; 15.6 µM (inactive) in the assay on MDA-MB-435; 6.84 µM (inactive) in the assay on RPMI-8226; 10.8 µM (inactive) with MCF7; 15.1 µM (inactive) in the assay with OVCAR-4. For the same compound, the GI50 in the assay with CAKI-1 is 15.8 µM (inactive); in the assay on SF-295, 16.9 µM (inactive); in the assay on HOP-92 it was 3.15 µM (inactive); with OVCAR-8 it was 16 µM (inactive); in the assay on CCRF-CEM, 6.3 µM (inactive); with HCC 2998 it was 17.5 µM (inactive).

Take `Clc1ccc(Cl)c(NNc2cc(Cl)ccc2Cl)c1`: the GI50 is 2.83 µM (inactive) with SK-MEL-2; > 10 µM (inactive) in the assay on Hs-578T; 3.88 µM (inactive) with UACC-62; 3.66 µM (inactive) with PC-3; > 10 µM (inactive) with HT-29; 4.67 µM (inactive) with IGROV-1. The GI50 was > 10 µM (inactive) in the assay on OVCAR-5; > 10 µM (inactive) in the assay with SF-539; 4.76 µM (inactive) in the assay on TK-10; 3.82 µM (inactive) with Malme-3M; 8.09 µM (inactive) in the assay on MDA-MB-435; 4.3 µM (inactive) in the assay with RPMI-8226. The GI50 is 7.74 µM (inactive) in the assay with MCF7; 4.95 µM (inactive) with OVCAR-4; > 10 µM (inactive) in the assay on CAKI-1; > 10 µM (inactive) in the assay with SF-295; 7.64 µM (inactive) in the assay on OVCAR-8; 3.63 µM (inactive) in the assay on CCRF-CEM. In addition, in the assay on HCC 2998, the GI50 was 7.03 µM (inactive).

Regarding `Cc1ccc(-c2nc(C)c(C(=O)Nc3ccc(Cl)cc3)s2)cc1`, the GI50 was 34.4 µM (inactive) in the assay with SK-MEL-2; 21.8 µM (inactive) in the assay on Hs-578T; 19.6 µM (inactive) in the assay on UACC-62; 44.8 µM (inactive) in the assay with PC-3; > 100 µM (inactive) in the assay with HT-29; 29.2 µM (inactive) in the assay on IGROV-1. Further, the GI50 was 82.2 µM (inactive) in the assay with OVCAR-5; 29.9 µM (inactive) in the assay with SF-539; 20.6 µM (inactive) with TK-10; 36.4 µM (inactive) in the assay with Malme-3M; > 100 µM (inactive) with MDA-MB-435; > 100 µM (inactive) with RPMI-8226. Also, the GI50 in the assay on MCF7 is > 100 µM (inactive); in the assay on OVCAR-4 it was 18.3 µM (inactive); in the assay on CAKI-1 it was 20 µM (inactive); in the assay on SF-295, 15.4 µM (inactive); in the assay with HOP-92, 23.5 µM (inactive); with OVCAR-8, 18.8 µM (inactive). Besides, the GI50 with CCRF-CEM was > 100 µM (inactive).
